From ChEMBL document CHEMBL5380874, “Transformation of a Dopamine D2 Receptor Agonist to Partial Agonists as Novel Antipsychotic Agents” (J Med Chem, 2023)

How the values were obtained:
D(2) dopamine receptor [1] = target: T1, D(2) dopamine receptor (Homo sapiens, UniProt P14416); assay: Partial agonist activity at Dopamine D2 receptor (unknown origin) expressed in HEK293T coexpressing beta-arrestin-2 assessed as increase in cAMP accumulation incubated for 5 mins by beta-arrestin recruitment based BRET assay; assay type: functional, cell-based
D(2) dopamine receptor [2] = target: T1, D(2) dopamine receptor; assay: Partial agonist activity at Dopamine D2 receptor (unknown origin) expressed in HEK293T co-expressing G-alphai assessed as increase in cAMP accumulation incubated for 5 mins by BRET assay; assay type: functional, cell-based
[3] = Drug concentration in C57BL/6J mouse brain at 5 mg/kg,ip measured at 0.5 hrs by LC-MS analysis; assay type: ADME, organism-based; details: read-out: Ct
[4] = Ratio of drug concentration in brain to plasma in C57BL/6J mouse at 5 mg/kg,ip measured at 2 hrs by LC-MS analysis; assay type: ADME, organism-based; details: read-out: BPR
[5] = Drug concentration in C57BL/6J mouse plasma at 5 mg/kg,ip measured at 2 hrs by LC-MS analysis; assay type: ADME, organism-based; details: in vivo
[6] = Ratio of drug concentration in brain to plasma in C57BL/6J mouse at 5 mg/kg,ip measured at 0.5 hrs by LC-MS analysis; assay type: ADME, organism-based; details: read-out: BPR
[7] = Drug concentration in C57BL/6J mouse brain at 5 mg/kg,ip measured at 2 hrs by LC-MS analysis; assay type: ADME, organism-based; details: read-out: Ct
[8] = Drug concentration in C57BL/6J mouse plasma at 5 mg/kg,ip measured at 0.5 hrs by LC-MS analysis; assay type: ADME, organism-based; details: in vivo
D(2) dopamine receptor [9] = target: T1, D(2) dopamine receptor; assay: Displacement of [3H]N-methylspiperone from Dopamine D2 receptor (unknown origin) expressed in HEK293T cell membrane incubated for 2 hrs by radioligand competitive binding based MicroBeta TriLux reader method; assay type: cell membranes
D(1A) dopamine receptor = D(1A) dopamine receptor (Homo sapiens, UniProt P21728); assay: Displacement of [3H]-SCH23390 from Dopamine D1 receptor (unknown origin) expressed in HEK293T cell membrane incubated for 2 hrs by radioligand competitive binding based MicroBeta TriLux reader method; assay type: cell membranes
D(1B) dopamine receptor = D(1B) dopamine receptor (Homo sapiens, UniProt P21918); assay: Displacement of […] from Dopamine D5 receptor (unknown origin) expressed in HEK293T cell membrane incubated for 2 hrs by radioligand competitive binding based MicroBeta TriLux reader method; assay type: cell membranes
[10] = target: T2, 5-hydroxytryptamine receptor 2C (Homo sapiens, UniProt P28335); assay: Displacement of [3H]-LSD from 5-HT2C receptor (unknown origin) expressed in HEK293T cell membrane incubated for 2 hrs by radioligand competitive binding based MicroBeta TriLux reader method; assay type: cell membranes
T2 sequence (P28335 whole entry): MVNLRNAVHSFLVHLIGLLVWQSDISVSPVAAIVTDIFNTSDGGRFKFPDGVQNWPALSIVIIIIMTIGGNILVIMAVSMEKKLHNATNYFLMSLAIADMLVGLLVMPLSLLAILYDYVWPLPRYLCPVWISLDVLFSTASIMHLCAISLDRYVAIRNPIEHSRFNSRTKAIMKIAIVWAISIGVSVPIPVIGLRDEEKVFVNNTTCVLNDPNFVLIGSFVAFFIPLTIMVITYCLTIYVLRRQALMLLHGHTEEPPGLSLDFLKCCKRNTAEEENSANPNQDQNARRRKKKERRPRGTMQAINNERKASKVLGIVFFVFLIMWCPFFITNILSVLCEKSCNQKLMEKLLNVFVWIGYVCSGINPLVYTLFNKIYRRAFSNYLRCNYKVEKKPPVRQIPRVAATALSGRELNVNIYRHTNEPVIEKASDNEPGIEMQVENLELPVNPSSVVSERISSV

[11] = Tmax in Sprague-Dawley rat at 10 mg/kg,po measured upto 24 hrs by LC-MS analysis; assay type: ADME, organism-based; details: in vivo
[12] = AUC (0-t) in Sprague-Dawley rat at 3 mg/kg,iv measured upto 24 hrs by LC-MS analysis; assay type: ADME, organism-based; set-up: dose 3 mg/kg, time < 24 hrs, route iv; details: in vivo
[13] = AUC (0-t) in Sprague-Dawley rat at 10 mg/kg,po measured upto 24 hrs by LC-MS analysis; assay type: ADME, organism-based; set-up: time < 24 hrs, dose 10 mg/kg, route po; details: in vivo
[14] = C0 in Sprague-Dawley rat at 3 mg/kg,iv measured upto 24 hrs by LC-MS analysis; assay type: ADME, organism-based; details: in vivo
[15] = Half life in Sprague-Dawley rat at 10 mg/kg,po measured upto 24 hrs by LC-MS analysis; assay type: ADME, organism-based; details: in vivo
[16] = Clearance in Sprague-Dawley rat at 3 mg/kg,iv measured upto 24 hrs by LC-MS analysis; assay type: ADME, organism-based; details: in vivo
[17] = Oral bioavailability in Sprague-Dawley rat at 10 mg/kg measured upto 24 hrs by LC-MS analysis; assay type: ADME, organism-based; details: in vivo
[18] = AUC (0-infinity) in Sprague-Dawley rat at 3 mg/kg,iv measured upto 24 hrs by LC-MS analysis; assay type: ADME, organism-based; set-up: dose 3 mg/kg, time < 24 hrs, route iv; details: in vivo
[19] = Half life in Sprague-Dawley rat at 3 mg/kg,iv measured upto 24 hrs by LC-MS analysis; assay type: ADME, organism-based; details: in vivo
[20] = AUC (0-infinity) in Sprague-Dawley rat at 10 mg/kg,po measured upto 24 hrs by LC-MS analysis; assay type: ADME, organism-based; set-up: dose 10 mg/kg, time < 24 hrs, route po; details: in vivo
[21] = Cmax in Sprague-Dawley rat at 10 mg/kg,po measured upto 24 hrs by LC-MS analysis; assay type: ADME, organism-based; set-up: time < 24 hrs, dose 10 mg/kg, route po; details: in vivo

Chain of D(1B) dopamine receptor (P21918 whole entry): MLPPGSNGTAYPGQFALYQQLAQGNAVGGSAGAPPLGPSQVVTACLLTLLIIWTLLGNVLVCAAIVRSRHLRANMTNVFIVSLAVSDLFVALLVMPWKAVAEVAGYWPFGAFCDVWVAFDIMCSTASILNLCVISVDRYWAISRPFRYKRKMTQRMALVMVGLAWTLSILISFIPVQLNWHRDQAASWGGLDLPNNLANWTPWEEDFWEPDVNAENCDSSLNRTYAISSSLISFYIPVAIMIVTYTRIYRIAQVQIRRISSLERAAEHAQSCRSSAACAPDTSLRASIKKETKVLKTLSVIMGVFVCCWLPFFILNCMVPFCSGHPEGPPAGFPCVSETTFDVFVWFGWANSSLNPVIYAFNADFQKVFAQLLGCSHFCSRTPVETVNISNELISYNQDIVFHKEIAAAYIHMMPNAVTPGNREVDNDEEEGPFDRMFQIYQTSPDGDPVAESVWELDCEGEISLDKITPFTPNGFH
Chain of D(1A) dopamine receptor (P21728 whole entry): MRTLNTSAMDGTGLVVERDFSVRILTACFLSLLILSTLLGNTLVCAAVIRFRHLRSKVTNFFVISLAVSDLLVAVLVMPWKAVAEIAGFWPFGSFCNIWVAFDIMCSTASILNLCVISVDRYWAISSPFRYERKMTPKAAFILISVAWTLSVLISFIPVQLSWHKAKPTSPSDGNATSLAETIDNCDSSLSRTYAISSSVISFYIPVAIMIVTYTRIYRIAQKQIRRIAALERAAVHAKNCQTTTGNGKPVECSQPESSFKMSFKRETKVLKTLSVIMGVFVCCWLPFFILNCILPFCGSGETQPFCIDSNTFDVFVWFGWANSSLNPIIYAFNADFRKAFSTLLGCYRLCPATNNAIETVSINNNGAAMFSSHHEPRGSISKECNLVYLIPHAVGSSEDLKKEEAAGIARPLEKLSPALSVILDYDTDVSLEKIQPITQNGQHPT
T1 sequence (P14416 whole entry): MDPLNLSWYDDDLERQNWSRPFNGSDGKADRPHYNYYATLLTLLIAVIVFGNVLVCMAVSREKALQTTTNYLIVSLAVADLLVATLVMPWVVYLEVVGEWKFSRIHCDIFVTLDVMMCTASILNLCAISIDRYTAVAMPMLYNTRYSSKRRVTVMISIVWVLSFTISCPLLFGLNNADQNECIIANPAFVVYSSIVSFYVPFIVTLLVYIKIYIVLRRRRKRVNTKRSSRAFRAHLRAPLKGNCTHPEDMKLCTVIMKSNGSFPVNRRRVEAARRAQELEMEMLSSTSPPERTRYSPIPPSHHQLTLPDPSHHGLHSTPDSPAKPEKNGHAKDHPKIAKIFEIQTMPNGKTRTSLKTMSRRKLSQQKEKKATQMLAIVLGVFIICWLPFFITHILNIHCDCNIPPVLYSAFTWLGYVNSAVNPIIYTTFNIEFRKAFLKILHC

COc1cccc2c3c(oc12)CN(CCCOc1ccc2ccc(=O)[nH]c2c1)CC3
EC50 (D(2) dopamine receptor [1]; read-out: EC50): 26.6 nM
EC50 (D(2) dopamine receptor [2]; read-out: EC50): 0.31 nM

COc1cccc2cc(CNCCCCOc3ccc4ccc(=O)[nH]c4c3)oc12
concentration at 0.5 h [3]: 32.1 ng/mL
Kp at 2 h [4]: 0.434
Cp [5]: 6.95 ng/mL
Kp at 0.5 h [6]: 0.118
concentration at 2 h [7]: 3.02 ng/mL
Cp [8]: 272 ng/mL

O=c1ccc2ccc(OCCCCNCc3cc4ccccc4o3)cc2[nH]1
EC50 (D(2) dopamine receptor [1]; read-out: EC50): 2.51 nM
EC50 (D(2) dopamine receptor [2]; read-out: EC50): 25.8 nM
Ki (D(2) dopamine receptor [9]; read-out: Ki): 239 nM

CCOc1cccc2cc(CNCCCCCOc3ccc4c(c3)NC(=O)CC4)oc12
EC50 (D(2) dopamine receptor [1]; read-out: EC50): 45.1 nM
EC50 (D(2) dopamine receptor [1]; read-out: pEC50 (converted)): 45.7 nM
EC50 (D(2) dopamine receptor [2]; read-out: EC50): 955 nM
Ki (D(2) dopamine receptor [9]; read-out: Ki): 439 nM
Ki (D(2) dopamine receptor [9]; read-out: pKi (converted)): 447 nM

COc1cccc2c3c(oc12)CN(CCCCOc1ccc2c(c1)NC(=O)CC2)CC3
concentration at 0.5 h [3]: 410 ng/mL
Kp at 2 h [4]: 0.439
Cp [5]: 571 ng/mL
Kp at 0.5 h [6]: 0.759
concentration at 2 h [7]: 332 ng/mL
Ki (D(1A) dopamine receptor; read-out: Ki): 35.5 nM
Ki (D(1A) dopamine receptor; read-out: pKi (converted)): 36.3 nM
Ki (D(1B) dopamine receptor; read-out: Ki): 159 nM
Ki (D(1B) dopamine receptor; read-out: pKi (converted)): 162 nM
Cp [8]: 540 ng/mL
Ki ([10]; read-out: Ki): 611 nM

CCOc1cccc2cc(CNCC[C@H]3CC[C@H](NC(=O)N(C)C)CC3)oc12
EC50 (D(2) dopamine receptor [1]; read-out: EC50): 3.81 nM
EC50 (D(2) dopamine receptor [2]; read-out: EC50): 14.7 nM
Ki (D(2) dopamine receptor [9]; read-out: Ki): 99.3 nM

COc1cccc2c3c(oc12)CN(CCCCOc1ccc2cccnc2c1)CC3
EC50 (D(2) dopamine receptor [1]; read-out: EC50): 518 nM
EC50 (D(2) dopamine receptor [2]; read-out: EC50): 2210 nM
Ki (D(2) dopamine receptor [9]; read-out: Ki): 1340 nM

CCOc1cccc2cc(C(C)NCC3(O)CCCCC3)oc12 (configuration not stated)
Ki (D(2) dopamine receptor [9]; read-out: Ki): 2130 nM

CC(C)Oc1cccc2c3c(oc12)CN(CCCCOc1ccc2ccc(=O)[nH]c2c1)CC3
EC50 (D(2) dopamine receptor [2]; hek293t): Not Active

COc1cccc2c3c(oc12)CN(CCCCOc1ccc2ccc(=O)[nH]c2c1)CC3
Tmax [11]: 0.5 h
AUC(0-t) at 24 h [12]: 2990 ng·h/mL
AUC(0-t) at 24 h [13]: 8920 ng·h/mL
C0 at 24 h [14]: 1330 ng/mL
Cp [5]: 397 ng/mL
Ki (D(1A) dopamine receptor; read-out: Ki): 189 nM
Ki (D(1B) dopamine receptor; read-out: Ki): 1040 nM
half-life [15]: 2.87 h
clearance [16]: 16.7 mL/min/kg
EC50 (D(2) dopamine receptor [2]; read-out: EC50): 18.8 nM
bioavailability [17]: 88.8%
AUC(0-inf) [18]: 3010 ng·h/mL
half-life [19]: 3.48 h
AUC(0-inf) [20]: 8940 ng·h/mL
Cmax [21]: 1560 ng/mL
Ki ([10]; read-out: Ki): 555 nM
Ki ([10]; read-out: pKi (converted)): 562 nM

CCOc1cccc2cc(CNCC[C@H]3CC[C@H](NC(=O)N4CCCC4)CC3)oc12
EC50 (D(2) dopamine receptor [1]; read-out: EC50): 6.2 nM
EC50 (D(2) dopamine receptor [2]; read-out: EC50): 10.9 nM
Ki (D(2) dopamine receptor [9]; read-out: Ki): 67.9 nM
Ki (D(2) dopamine receptor [9]; read-out: pKi (converted)): 69.2 nM

COc1cccc2c3c(oc12)CN(CCCCOc1ccc2ccc(=O)n(C)c2c1)CC3
Ki (D(2) dopamine receptor [9]; read-out: Ki): 2280 nM
